pIC50: −log10 of the molar value. Converted amounts (≈) assume the structure as drawn.
Experiments:
Streptococcus pneumoniae = assay: Antibacterial activity against Streptococcus pneumoniae IID554; assay type: functional; details: Streptococcus pneumoniae, IID554; read-out: MIC
Escherichia coli = assay: Antibacterial activity against Escherichia coli ATCC 25922; assay type: functional; details: Escherichia coli, ATCC 25922; read-out: MIC
Moraxella catarrhalis = assay: Antibacterial activity against Moraxella catarrhalis ATCC 25238; assay type: functional; details: Moraxella catarrhalis, ATCC 25238; read-out: MIC
Acinetobacter baumannii = assay: Antibacterial activity against Acinetobacter baumannii IID876; assay type: functional; details: Acinetobacter baumannii, IID876; read-out: MIC
Enterococcus faecium = assay: Antibacterial activity against VanA-type vancomycin-resistant Enterococcus faecium A2373; assay type: functional; details: Enterococcus faecium, A2373; read-out: MIC
Enterococcus faecalis = assay: Antibacterial activity against Enterococcus faecalis ATCC 29212; assay type: functional; details: Enterococcus faecalis, ATCC 29212; read-out: MIC
Staphylococcus aureus [1] = assay: Antibacterial activity against Staphylococcus aureus Smith; assay type: functional; details: Staphylococcus aureus, Smith; read-out: MIC
Pseudomonas aeruginosa = assay: Antibacterial activity against Pseudomonas aeruginosa PAO1; assay type: functional; details: Pseudomonas aeruginosa, PAO1; read-out: MIC
Haemophilus influenzae = assay: Antibacterial activity against Haemophilus influenzae ATCC 49247; assay type: functional; details: Haemophilus influenzae, ATCC 49247; read-out: MIC
[2] = Volume of distribution at steady state in C57BL/6 mouse at 1 mg/kg, iv and 2 mg/kg, po; assay type: ADME, organism-based; details: in vivo, read-out: Vdss
[3] = Plasma clearance in C57BL/6 mouse at 1 mg/kg, iv and 2 mg/kg, po; assay type: ADME, organism-based
[4] = Oral bioavailability in C57BL/6 mouse at 2 mg/kg; assay type: ADME, organism-based; details: in vivo
[5] = target: T1, Voltage-gated inwardly rectifying potassium channel KCNH2 (Homo sapiens, UniProt Q12809); assay: Inhibition of human ERG expressed in CHO cells measured over 5 mins by patch clamp assay
Staphylococcus aureus [6] = assay: Ratio of MIC for quinolone-resistant Staphylococcus aureus MS5935 to MIC for quinolone-sensitive Staphylococcus aureus; assay type: functional
Staphylococcus aureus [7] = assay: Antibacterial activity against Staphylococcus aureus Smith infected in iv dosed CD1 mouse administered at 0.5 hrs post infection; assay type: functional
[8] = Half life in C57BL/6 mouse at 1 mg/kg, iv and 2 mg/kg, po; assay type: ADME, organism-based; details: in vivo
[9] = target: T1, Voltage-gated inwardly rectifying potassium channel KCNH2; assay: Displacement of MK499 from human ERG
Mus musculus = assay: Dose normalized AUC in C57BL/6 mouse at 1 mg/kg, iv and 2 mg/kg, po; assay type: ADME, organism-based; details: in vivo
Staphylococcus aureus [10] = assay: Antibacterial activity against Staphylococcus aureus Smith infected in po dosed CD1 mouse administered at 0.5 hrs post infection; assay type: functional

T1 sequence (Q12809 whole entry): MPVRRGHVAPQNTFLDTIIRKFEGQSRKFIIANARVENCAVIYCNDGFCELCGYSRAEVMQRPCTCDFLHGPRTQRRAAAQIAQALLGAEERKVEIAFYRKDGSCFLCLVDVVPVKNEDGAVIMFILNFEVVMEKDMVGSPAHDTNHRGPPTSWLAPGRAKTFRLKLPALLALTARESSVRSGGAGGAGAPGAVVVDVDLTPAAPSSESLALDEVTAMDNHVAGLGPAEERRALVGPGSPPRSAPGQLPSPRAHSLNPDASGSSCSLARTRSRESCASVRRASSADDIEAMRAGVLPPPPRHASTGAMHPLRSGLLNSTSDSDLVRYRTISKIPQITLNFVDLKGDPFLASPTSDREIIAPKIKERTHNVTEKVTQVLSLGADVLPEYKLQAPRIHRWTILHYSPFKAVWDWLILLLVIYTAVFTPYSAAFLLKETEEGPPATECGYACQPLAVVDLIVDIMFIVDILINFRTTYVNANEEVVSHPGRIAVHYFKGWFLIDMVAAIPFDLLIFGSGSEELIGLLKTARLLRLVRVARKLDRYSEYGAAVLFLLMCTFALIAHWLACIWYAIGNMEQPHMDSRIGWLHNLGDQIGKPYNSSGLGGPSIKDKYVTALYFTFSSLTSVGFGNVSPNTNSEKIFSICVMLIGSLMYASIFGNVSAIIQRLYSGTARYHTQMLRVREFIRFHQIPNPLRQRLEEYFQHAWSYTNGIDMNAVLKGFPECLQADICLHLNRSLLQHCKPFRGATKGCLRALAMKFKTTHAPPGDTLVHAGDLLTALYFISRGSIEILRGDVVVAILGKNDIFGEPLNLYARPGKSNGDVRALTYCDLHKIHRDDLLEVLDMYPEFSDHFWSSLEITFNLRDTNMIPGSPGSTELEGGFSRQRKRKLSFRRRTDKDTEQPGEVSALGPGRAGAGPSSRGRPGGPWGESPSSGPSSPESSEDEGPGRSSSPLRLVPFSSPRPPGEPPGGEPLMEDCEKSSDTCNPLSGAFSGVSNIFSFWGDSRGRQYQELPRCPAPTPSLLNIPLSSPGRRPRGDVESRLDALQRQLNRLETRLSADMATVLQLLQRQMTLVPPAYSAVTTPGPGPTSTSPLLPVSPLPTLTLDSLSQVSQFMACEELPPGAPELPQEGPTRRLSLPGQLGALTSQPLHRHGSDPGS

Compound: O=C1COc2ccc(CNC34CCC(C[C@]5(O)Cn6c(=O)ccc7ncc(F)c5c76)(CC3)OC4)nc2N1
- MIC (Streptococcus pneumoniae): 0.25 µg/mL (≈ 0.493 µM)
- MIC (Escherichia coli): 4 µg/mL (≈ 7.88 µM)
- MIC (Moraxella catarrhalis): 0.25 µg/mL (≈ 0.493 µM)
- MIC (Acinetobacter baumannii): 2 µg/mL (≈ 3.94 µM)
- MIC (Enterococcus faecium): 8 µg/mL (≈ 15.8 µM)
- MIC (Enterococcus faecalis): 4 µg/mL (≈ 7.88 µM)
- MIC (Staphylococcus aureus [1]): 0.25 µg/mL (≈ 0.493 µM)
- MIC (Pseudomonas aeruginosa): 16 µg/mL (≈ 31.5 µM)
- MIC (Haemophilus influenzae): 1 µg/mL (≈ 1.97 µM)

Compound: O=c1ccc2ncc(F)c3c2n1C[C@@]3(O)CC12CCC(NCc3cc4c(cc3Cl)OCCO4)(CC1)CO2
- MIC (Streptococcus pneumoniae): 0.5 µg/mL (≈ 0.947 µM)
- MIC (Escherichia coli): 32 µg/mL (≈ 60.6 µM)
- MIC (Moraxella catarrhalis): 0.5 µg/mL (≈ 0.947 µM)
- MIC (Acinetobacter baumannii): 8 µg/mL (≈ 15.2 µM)
- MIC (Enterococcus faecium): 8 µg/mL (≈ 15.2 µM)
- MIC (Enterococcus faecalis): 4 µg/mL (≈ 7.58 µM)
- MIC (Staphylococcus aureus [1]): 0.25 µg/mL (≈ 0.474 µM)
- MIC (Pseudomonas aeruginosa): 32 µg/mL (≈ 60.6 µM)
- MIC (Haemophilus influenzae): 32 µg/mL (≈ 60.6 µM)

Compound: O=C1COc2cc(Cl)c(CNC34CCC(C[C@]5(O)Cn6c(=O)ccc7ncc(F)c5c76)(CC3)OC4)nc2N1
- MIC (Streptococcus pneumoniae): 2 µg/mL (≈ 3.69 µM)
- MIC (Escherichia coli): 8 µg/mL (≈ 14.8 µM)
- Vd [2]: 7 L/kg
- MIC (Acinetobacter baumannii): 2 µg/mL (≈ 3.69 µM)
- MIC (Enterococcus faecium): 16 µg/mL (≈ 29.5 µM)
- MIC (Enterococcus faecalis): 8 µg/mL (≈ 14.8 µM)
- clearance [3]: 38 mL/min/kg
- MIC (Staphylococcus aureus [1]): 0.25 µg/mL (≈ 0.461 µM)
- bioavailability [4]: 51%
- pIC50 [5]: 3.90
- Ratio (Staphylococcus aureus [6]): <4
- ED90 (Staphylococcus aureus [7]): 24 mg/kg
- MIC (Pseudomonas aeruginosa): 16 µg/mL (≈ 29.5 µM)
- half-life [8]: 3.5 h
- pIC50 [9]: 4.56
- AUC/dose (Mus musculus): 0.7 µM·h/mg/kg
- ED90 (Staphylococcus aureus [10]): 29 mg/kg

Compound: Cc1cc2c(nc1CNC13CCC(C[C@]4(O)Cn5c(=O)ccc6ncc(F)c4c65)(CC1)OC3)NC(=O)CO2
- MIC (Streptococcus pneumoniae): 4 µg/mL (≈ 7.67 µM)
- MIC (Escherichia coli): 8 µg/mL (≈ 15.3 µM)
- MIC (Moraxella catarrhalis): 0.5 µg/mL (≈ 0.959 µM)
- MIC (Acinetobacter baumannii): 4 µg/mL (≈ 7.67 µM)
- MIC (Enterococcus faecium): 32 µg/mL (≈ 61.4 µM)
- MIC (Enterococcus faecalis): 8 µg/mL (≈ 15.3 µM)
- MIC (Staphylococcus aureus [1]): 1.5 µg/mL (≈ 2.88 µM)
- MIC (Pseudomonas aeruginosa): 32 µg/mL (≈ 61.4 µM)
- MIC (Haemophilus influenzae): 4 µg/mL (≈ 7.67 µM)

Compound: CCc1cc2c(nc1CNC13CCC(C[C@]4(O)Cn5c(=O)ccc6ncc(F)c4c65)(CC1)OC3)NC(=O)CO2
- MIC (Streptococcus pneumoniae): 32 µg/mL (≈ 59.7 µM)
- MIC (Escherichia coli): 16 µg/mL (≈ 29.9 µM)
- MIC (Moraxella catarrhalis): 1 µg/mL (≈ 1.87 µM)
- MIC (Acinetobacter baumannii): 1 µg/mL (≈ 1.87 µM)
- MIC (Enterococcus faecium): 32 µg/mL (≈ 59.7 µM)
- MIC (Enterococcus faecalis): 32 µg/mL (≈ 59.7 µM)
- MIC (Staphylococcus aureus [1]): 8 µg/mL (≈ 14.9 µM)
- pIC50 [5]: < 4.22
- Ratio (Staphylococcus aureus [6]): <4
- MIC (Pseudomonas aeruginosa): 32 µg/mL (≈ 59.7 µM)
- MIC (Haemophilus influenzae): 16 µg/mL (≈ 29.9 µM)
- pIC50 [9]: < 4.22

Compound: Nc1cc2c(nc1CNC13CCC(C[C@]4(O)Cn5c(=O)ccc6ncc(F)c4c65)(CC1)OC3)NC(=O)CO2
- MIC (Streptococcus pneumoniae): 32 µg/mL (≈ 61.2 µM)
- MIC (Escherichia coli): 32 µg/mL (≈ 61.2 µM)
- MIC (Moraxella catarrhalis): 4 µg/mL (≈ 7.65 µM)
- MIC (Acinetobacter baumannii): 32 µg/mL (≈ 61.2 µM)
- MIC (Enterococcus faecium): 32 µg/mL (≈ 61.2 µM)
- MIC (Enterococcus faecalis): 32 µg/mL (≈ 61.2 µM)
- MIC (Staphylococcus aureus [1]): 8 µg/mL (≈ 15.3 µM)
- Ratio (Staphylococcus aureus [6]): <4
- MIC (Pseudomonas aeruginosa): 32 µg/mL (≈ 61.2 µM)
- MIC (Haemophilus influenzae): 32 µg/mL (≈ 61.2 µM)

Compound: O=C1COc2cc(O)c(CNC34CCC(C[C@]5(O)Cn6c(=O)ccc7ncc(F)c5c76)(CC3)OC4)nc2N1
- MIC (Streptococcus pneumoniae): 2 µg/mL (≈ 3.82 µM)
- MIC (Escherichia coli): 16 µg/mL (≈ 30.6 µM)
- MIC (Moraxella catarrhalis): 1 µg/mL (≈ 1.91 µM)
- MIC (Acinetobacter baumannii): 32 µg/mL (≈ 61.1 µM)
- MIC (Enterococcus faecium): 16 µg/mL (≈ 30.6 µM)
- MIC (Enterococcus faecalis): 8 µg/mL (≈ 15.3 µM)
- MIC (Staphylococcus aureus [1]): 2 µg/mL (≈ 3.82 µM)
- Ratio (Staphylococcus aureus [6]): <4
- MIC (Pseudomonas aeruginosa): 16 µg/mL (≈ 30.6 µM)
- MIC (Haemophilus influenzae): 4 µg/mL (≈ 7.64 µM)

Compound: O=C1COc2cc(OC(=O)c3ccccc3)c(CNC34CCC(C[C@]5(O)Cn6c(=O)ccc7ncc(F)c5c76)(CC3)OC4)nc2N1
- MIC (Streptococcus pneumoniae): 32 µg/mL (≈ 51 µM)
- MIC (Escherichia coli): 32 µg/mL (≈ 51 µM)
- MIC (Moraxella catarrhalis): 32 µg/mL (≈ 51 µM)
- MIC (Acinetobacter baumannii): 32 µg/mL (≈ 51 µM)
- MIC (Enterococcus faecium): 32 µg/mL (≈ 51 µM)
- MIC (Enterococcus faecalis): 32 µg/mL (≈ 51 µM)
- MIC (Staphylococcus aureus [1]): 8 µg/mL (≈ 12.7 µM)
- pIC50 [5]: 4.52
- Ratio (Staphylococcus aureus [6]): <4
- MIC (Pseudomonas aeruginosa): 32 µg/mL (≈ 51 µM)
- MIC (Haemophilus influenzae): 32 µg/mL (≈ 51 µM)

Compound: O=C1COc2cnc(CNC34CCC(C[C@]5(O)Cn6c(=O)ccc7ncc(F)c5c76)(CC3)OC4)nc2N1
- MIC (Streptococcus pneumoniae): 2 µg/mL (≈ 3.93 µM)
- MIC (Escherichia coli): 8 µg/mL (≈ 15.7 µM)
- MIC (Acinetobacter baumannii): 32 µg/mL (≈ 62.9 µM)
- MIC (Enterococcus faecium): 16 µg/mL (≈ 31.5 µM)
- MIC (Enterococcus faecalis): 4 µg/mL (≈ 7.87 µM)
- MIC (Staphylococcus aureus [1]): 0.5 µg/mL (≈ 0.983 µM)
- pIC50 [5]: 4.52
- Ratio (Staphylococcus aureus [6]): <4
- MIC (Pseudomonas aeruginosa): 16 µg/mL (≈ 31.5 µM)

Compound: N#Cc1c(CNC23CCC(C[C@]4(O)Cn5c(=O)ccc6ncc(F)c4c65)(CC2)OC3)ncc2c1OCCO2
- MIC (Streptococcus pneumoniae): 32 µg/mL (≈ 61.6 µM)
- MIC (Escherichia coli): 32 µg/mL (≈ 61.6 µM)
- MIC (Moraxella catarrhalis): 32 µg/mL (≈ 61.6 µM)
- MIC (Acinetobacter baumannii): 32 µg/mL (≈ 61.6 µM)
- MIC (Enterococcus faecium): 32 µg/mL (≈ 61.6 µM)
- MIC (Enterococcus faecalis): 32 µg/mL (≈ 61.6 µM)
- MIC (Staphylococcus aureus [1]): 8 µg/mL (≈ 15.4 µM)
- MIC (Pseudomonas aeruginosa): 32 µg/mL (≈ 61.6 µM)
- MIC (Haemophilus influenzae): 32 µg/mL (≈ 61.6 µM)

Compound: O=c1ccc2ncc(F)c3c2n1C[C@@]3(O)CC12CCC(NCc3cc4c(cn3)OCCS4)(CC1)CO2
- MIC (Streptococcus pneumoniae): 0.5 µg/mL (≈ 0.979 µM)
- MIC (Escherichia coli): 32 µg/mL (≈ 62.7 µM)
- MIC (Moraxella catarrhalis): 1 µg/mL (≈ 1.96 µM)
- MIC (Acinetobacter baumannii): 4 µg/mL (≈ 7.83 µM)
- MIC (Enterococcus faecium): 8 µg/mL (≈ 15.7 µM)
- MIC (Enterococcus faecalis): 2 µg/mL (≈ 3.92 µM)
- MIC (Staphylococcus aureus [1]): 0.25 µg/mL (≈ 0.49 µM)
- MIC (Pseudomonas aeruginosa): 32 µg/mL (≈ 62.7 µM)
- MIC (Haemophilus influenzae): 8 µg/mL (≈ 15.7 µM)

Compound: O=c1ccc2ncc(F)c3c2n1C[C@@]3(O)CC12CCC(NCc3cc4c(cn3)SCCO4)(CC1)CO2
- MIC (Streptococcus pneumoniae): 0.25 µg/mL (≈ 0.49 µM)
- MIC (Escherichia coli): 16 µg/mL (≈ 31.3 µM)
- MIC (Moraxella catarrhalis): 0.5 µg/mL (≈ 0.979 µM)
- MIC (Acinetobacter baumannii): 2 µg/mL (≈ 3.92 µM)
- MIC (Enterococcus faecium): 4 µg/mL (≈ 7.83 µM)
- MIC (Enterococcus faecalis): 2 µg/mL (≈ 3.92 µM)
- MIC (Staphylococcus aureus [1]): 0.12 µg/mL (≈ 0.235 µM)
- MIC (Pseudomonas aeruginosa): 32 µg/mL (≈ 62.7 µM)
- MIC (Haemophilus influenzae): 8 µg/mL (≈ 15.7 µM)
